Measured values: patent publication US10328077B2 (CELGENE CORPORATION, priority 2016, dated 2019)
Read-outs that look alike come from different tables or passages of the source.

Experiments:
[1] = target: CYP2C9 (Homo sapiens (Human), UniProt P11712); assay: CYP inhibition in pooled human liver microsomes, CYP2C9; assay type: in vitro ADME; conditions: up to 50 μM
[2] = Exploratory toxicity study in dogs; assay type: in vivo, Beagle dogs
[3] = tested on: LU2514 SCLC patient-derived xenograft; assay: LU2514 HuPrime SCLC PDX model; assay type: in vivo, mice
Protocol: Tumor growth inhibition analysis was performed on Day 28 post treatment, the last day of dosing.

[4] = tested on: LXFS 573 SCLC patient-derived xenograft
[5] = Exploratory toxicity study in mice; assay type: in vivo, CD-1 mice; conditions: for reduction in neutrophil counts: 60 mg/kg/dose QOD
Source text: Additional animals were included for TK evaluation.

[6] = 4-week toxicity study (no recovery period) in dogs (incl. TK)
[7] = 4-week toxicity study with 4-week recovery in mice (incl. TK)
[8] = in vivo; conditions: Crl:CD1(ICR), mouse, plasma, po, 15 mg/kg
[9] = Pharmacokinetics after IV and oral dose, monkeys; assay type: in vivo; conditions: cynomolgus monkey, plasma, male; for half-life: read-out: t1/2, z (converted)
[10] = tested on: CYP3A4 mRNA; assay: CYP induction in cryopreserved human hepatocytes, CYP3A4; assay type: in vitro ADME; conditions: 0.03 to 10 μM, up to 3 days
[11] = target: CYP2C19 (Homo sapiens (Human), UniProt P33261); assay: CYP inhibition in pooled human liver microsomes, CYP2C19; assay type: in vitro ADME
[12] = LXFS 615 SCLC PDX model; assay type: in vivo, mice; conditions: female, NMRI-Foxnlnu, mouse, oral; 5 mg base/kg, plasma after final dose; read-out: AUC0-24
[13] = tested on: LXFS 615 SCLC patient-derived xenograft; assay: LXFS 615 SCLC PDX model; assay type: in vivo, mice
[14] = target: muscarinic M1 receptor (Homo sapiens (Human), UniProt P11229); assay: CEREP in vitro pharmacology panel, muscarinic M1 receptor
[15] = target: hERG potassium channel (Homo sapiens (Human), UniProt Q12809); assay: in vitro; conditions: HEK293 cells stably expressing hERG channels
[16] = tested on: MS-1 hMCC xenograft; assay type: in vivo; conditions: 5 mg/kg PO 5 on/2 off
[17] = tested on: ST18 and FREM2 gene expression in MKL-1 or MS-1 tumors; assay: qRT-PCR of candidate PD biomarker genes in hMCC xenografts (dose-response); assay type: in vivo, mice; conditions: 1, 2.5, or 5 mg/kg PO BID×4.5, both models
Protocol: Female NSG mice bearing palpable hMCC MKL-1 and MS-1 tumors were randomized into four groups of three mice each. Three groups were orally administered Compund A as monotherapy at 1, 2.5, or 5 mg/kg on a twice daily dosing schedule for nine doses (BID×4.5). The fourth group was orally administered vehicle as a control on the BID schedule. Four hours after the last dosing, tumors were collected into RNAlater and stored frozen.
Total RNA was eluted in RNase-free water and analyzed by qRT-PCR.

[18] = Excretion in bile duct cannulated rats; assay type: in vivo; conditions: IV, 24-hour period
[19] = Compound A 5 mg/kg/day PO days 1-133
[20] = Day 1, 5 mg base/kg/dose oral, 5 days on/2 days off, F
[21] = Day 1, 5 mg base/kg/dose oral, 5 days on/2 days off, M
[22] = Day 1, 15 mg base/kg/dose oral, 5 days on/2 days off, M
[23] = Day 1, 25 mg base/kg/dose oral, QODx3/week, F
[24] = Day 1, 25 mg base/kg/dose oral, QODx3/week, M
[25] = Day 1, 45 mg base/kg/dose oral, 5 days on/2 days off, F
[26] = Day 1, 45 mg base/kg/dose oral, 5 days on/2 days off, M
[27] = Day 26, 5 mg base/kg/dose oral, 5 days on/2 days off, F
[28] = Day 26, 5 mg base/kg/dose oral, 5 days on/2 days off, M
[29] = Day 26, 15 mg base/kg/dose oral, 5 days on/2 days off, F
[30] = Day 26, 25 mg base/kg/dose oral, QODx3/week, F
[31] = Day 26, 25 mg base/kg/dose oral, QODx3/week, M
[32] = Day 26, 45 mg base/kg/dose oral, 5 days on/2 days off, F
[33] = Day 26, 45 mg base/kg/dose oral, 5 days on/2 days off, M

hERG potassium channel, sequence (Q12809 whole entry): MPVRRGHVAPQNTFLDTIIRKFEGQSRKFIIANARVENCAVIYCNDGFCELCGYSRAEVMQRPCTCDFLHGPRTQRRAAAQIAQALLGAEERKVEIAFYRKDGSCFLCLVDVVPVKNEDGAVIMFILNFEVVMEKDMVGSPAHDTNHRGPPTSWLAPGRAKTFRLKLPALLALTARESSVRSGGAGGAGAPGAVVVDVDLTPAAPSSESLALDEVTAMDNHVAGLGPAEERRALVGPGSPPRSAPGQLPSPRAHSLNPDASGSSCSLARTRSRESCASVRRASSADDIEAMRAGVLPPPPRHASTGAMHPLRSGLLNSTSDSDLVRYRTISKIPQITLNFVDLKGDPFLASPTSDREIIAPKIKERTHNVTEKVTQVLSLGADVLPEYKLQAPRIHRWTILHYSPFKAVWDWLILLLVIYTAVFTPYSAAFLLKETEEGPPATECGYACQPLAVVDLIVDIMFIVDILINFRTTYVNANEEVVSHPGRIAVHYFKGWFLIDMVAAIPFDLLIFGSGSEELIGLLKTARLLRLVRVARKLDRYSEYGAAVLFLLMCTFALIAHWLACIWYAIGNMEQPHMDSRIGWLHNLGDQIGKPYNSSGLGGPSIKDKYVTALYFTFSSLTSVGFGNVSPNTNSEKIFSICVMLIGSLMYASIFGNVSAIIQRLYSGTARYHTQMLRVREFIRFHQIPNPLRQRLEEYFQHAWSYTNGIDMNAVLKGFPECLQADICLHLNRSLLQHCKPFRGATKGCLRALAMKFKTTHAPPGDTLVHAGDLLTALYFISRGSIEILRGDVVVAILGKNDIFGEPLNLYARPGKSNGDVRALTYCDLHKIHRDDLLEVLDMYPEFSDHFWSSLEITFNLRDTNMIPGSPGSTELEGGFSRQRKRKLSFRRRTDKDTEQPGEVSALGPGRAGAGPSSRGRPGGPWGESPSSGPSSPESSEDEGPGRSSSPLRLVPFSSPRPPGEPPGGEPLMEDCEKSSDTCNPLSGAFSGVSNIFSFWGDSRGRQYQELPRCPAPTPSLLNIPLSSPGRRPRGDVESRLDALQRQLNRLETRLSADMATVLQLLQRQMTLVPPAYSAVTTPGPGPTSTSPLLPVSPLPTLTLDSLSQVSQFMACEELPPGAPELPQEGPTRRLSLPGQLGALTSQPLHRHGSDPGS
muscarinic M1 receptor, sequence (P11229 whole entry): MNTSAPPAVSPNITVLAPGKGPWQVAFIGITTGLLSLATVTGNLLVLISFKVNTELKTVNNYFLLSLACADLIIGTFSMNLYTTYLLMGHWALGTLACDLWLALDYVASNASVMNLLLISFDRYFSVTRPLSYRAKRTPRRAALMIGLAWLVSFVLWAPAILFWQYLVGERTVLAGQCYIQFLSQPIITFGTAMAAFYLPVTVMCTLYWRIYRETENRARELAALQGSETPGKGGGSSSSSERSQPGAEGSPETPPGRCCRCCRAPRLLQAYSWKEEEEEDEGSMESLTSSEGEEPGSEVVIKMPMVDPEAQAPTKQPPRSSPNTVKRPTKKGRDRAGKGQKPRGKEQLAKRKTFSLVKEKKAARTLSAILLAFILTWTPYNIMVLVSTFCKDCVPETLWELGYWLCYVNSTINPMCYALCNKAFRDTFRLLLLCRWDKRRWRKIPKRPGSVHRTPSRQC
CYP2C19, sequence (P33261 whole entry): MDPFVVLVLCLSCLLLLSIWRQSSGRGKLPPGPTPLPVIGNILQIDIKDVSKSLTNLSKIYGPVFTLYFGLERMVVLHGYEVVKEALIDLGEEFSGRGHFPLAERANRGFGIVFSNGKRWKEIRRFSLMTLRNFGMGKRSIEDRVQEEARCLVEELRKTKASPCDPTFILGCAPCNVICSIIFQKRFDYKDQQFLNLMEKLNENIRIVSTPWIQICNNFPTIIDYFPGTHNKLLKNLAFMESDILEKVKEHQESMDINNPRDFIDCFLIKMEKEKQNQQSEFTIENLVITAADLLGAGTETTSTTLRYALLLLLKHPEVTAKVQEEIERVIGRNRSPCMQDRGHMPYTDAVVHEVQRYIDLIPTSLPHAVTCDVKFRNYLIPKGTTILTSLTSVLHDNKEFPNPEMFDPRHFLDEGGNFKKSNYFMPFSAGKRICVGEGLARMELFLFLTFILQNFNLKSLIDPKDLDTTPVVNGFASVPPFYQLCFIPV
CYP2C9, sequence (P11712 whole entry): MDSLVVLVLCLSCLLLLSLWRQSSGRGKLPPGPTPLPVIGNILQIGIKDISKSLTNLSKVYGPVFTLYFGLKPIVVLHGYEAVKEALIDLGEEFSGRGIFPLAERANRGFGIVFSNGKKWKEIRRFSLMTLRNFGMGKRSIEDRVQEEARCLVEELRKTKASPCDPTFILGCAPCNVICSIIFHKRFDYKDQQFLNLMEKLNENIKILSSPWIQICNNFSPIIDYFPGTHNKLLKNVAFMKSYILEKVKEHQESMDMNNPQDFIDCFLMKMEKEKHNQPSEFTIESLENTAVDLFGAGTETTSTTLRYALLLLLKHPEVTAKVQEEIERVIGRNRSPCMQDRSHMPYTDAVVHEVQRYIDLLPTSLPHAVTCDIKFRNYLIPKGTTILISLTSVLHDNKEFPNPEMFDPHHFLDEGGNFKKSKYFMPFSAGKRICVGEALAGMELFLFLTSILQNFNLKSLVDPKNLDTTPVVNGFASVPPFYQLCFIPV

COc1ccc(-c2c(-c3ccc(C#N)c(F)c3)nc(N3CCC(N)CC3)n(C)c2=O)cc1F [Compound A, 4-[2-(4-amino-piperidin-1-yl)-5-(3-fluoro-4-methoxy-phenyl)-1-methyl-6-oxo-1,6-dihydro-pyrimidin-4-yl]-2-fluoro-benzonitrile]
direct inhibition of CYP2C9 [1]: little to no direct inhibitory effect
platelet counts ([2]; 0.25 mg/kg/dose): no reduction in platelet counts
Compound A-related effects ([2]; 0.25 mg/kg/dose QOD): no Compound A-related effects
platelet counts ([2]; 0.5 mg/kg/dose (both schedules) and 1 mg/kg/dose, most dogs): below 25,000 /μL
body weight loss ([2]; one female, 0.5 mg/kg/day 5 days on/2 days off, sacrificed moribund Day 12): 10.8%
Median Tumor Volume Day 28 ([3]; 5 mg base/kg PO QDx28): 1244.8 mm^3
Median Tumor Volume Diff. (Day 28 - Day 1) ([3]; 5 mg base/kg PO QDx28): 1071.6 mm^3
Median Tumor Volume Day 28 ([3]; 10 mg base/kg PO QDx28): 906.0 mm^3
Median Tumor Volume Diff. (Day 28 - Day 1) ([3]; 10 mg base/kg PO QDx28): 732.3 mm^3
mean body weight loss ([3]; both LU2514 studies): < 10%
% TGD [4, 19]: 217%
T − C [4, 19]: 91 days
median TTE [4, 19]: 133 days
median TTE ([4]; Compound A monotherapy 5 mg/kg PO daily): 133 days
study survivors ([4]; Compound A monotherapy 5 mg/kg, Day 133, n=8): seven
MTV of study survivors ([4]; mouse, in vivo): 1064 mm3
MTV, median tumor volume of study survivors ([4]; mouse, in vivo): (1064) mm^3
SS, number of study survivors ([4]; mouse, in vivo): 7
increase in platelets on Day 8 ([5]; 10 mg/kg/day 5 days on/2 days off, vs end of first dosing period): > 2 fold
reduction in neutrophil counts ([5]; females): 66%
reduction in neutrophil counts ([5]; males): 83%
increased spleen weights ([5]; 30 or 60 mg/kg/dose 5 days on/2 days off): up to 2 fold
greatest reduction in neutrophil counts ([5]; 5 days on/2 days off schedule, vs concurrent controls and pre-study values): approximately 90%
circulating platelets ([5]; all dose levels, end of study): reduced
HNSTD ([6]; Q2W administration): 0.5 mg base/kg/dose
NOAEL ([6]; Q2W administration): < 0.5 mg base/kg/dose
NOAEL ([6]; QW administration): 0.125 mg base/kg/dose
HNSTD ([6]; QW dosing): 0.25 mg base/kg/dose
AUC0-24 [7, 20]: 1.5 µg·h/mL
Cmax [7, 20]: 0.201 µg/mL
AUC0-24 [7, 21]: 2.27 µg·h/mL
Cmax [7, 21]: 0.23 µg/mL
AUC0-24 [7, 22]: 13 µg·h/mL
Cmax [7, 22]: 1.02 µg/mL
AUC0-24 [7, 23]: 20.3 µg·h/mL
Cmax [7, 23]: 1.83 µg/mL
AUC0-24 [7, 24]: 21.9 µg·h/mL
Cmax [7, 24]: 1.53 µg/mL
AUC0-24 [7, 25]: 36.3 µg·h/mL
Cmax [7, 25]: 3.57 µg/mL
AUC0-24 [7, 26]: 35.2 µg·h/mL
Cmax [7, 26]: 3.13 µg/mL
AUC0-24 [7, 27]: 2.41 µg·h/mL
Cmax [7, 27]: 0.276 µg/mL
AUC0-24 [7, 28]: 2.01 µg·h/mL
Cmax [7, 28]: 0.276 µg/mL
AUC0-24 [7, 29]: 8.64 µg·h/mL
Cmax [7, 29]: 0.769 µg/mL
AUC0-24 [7, 30]: 17.5 µg·h/mL
Cmax [7, 30]: 1.74 µg/mL
AUC0-24 [7, 31]: 17.8 µg·h/mL
Cmax [7, 31]: 1.45 µg/mL
AUC0-24 [7, 32]: 26.5 µg·h/mL
Cmax [7, 32]: 2.13 µg/mL
AUC0-24 [7, 33]: 29 µg·h/mL
Cmax [7, 33]: 2.62 µg/mL
NOAEL ([7]; QD×5/week schedule): 5 mg base/kg/dose
STD10 ([7]; QD×5/week schedule): > 45 mg base/kg/dose
STD10 ([7]; QOD×3 weekly schedule): > 25 mg base/kg/dose
AUC(0-t) ([8]; female): 9.68 µg·h/mL
Cmax ([8]; female): 0.85 µg/mL
AUC(0-t) ([8]; male): 7.96 µg·h/mL
Cmax ([8]; male): 0.628 µg/mL
AUC(0-inf) ([9]; single IV dose 1 mg): 0.983 µg·h/mL
AUC(0-t) ([9]; single IV dose 1 mg): 0.912 µg·h/mL
clearance ([9]; single IV dose 1 mg): 1.08 L/h/kg
Vd ([9]; single IV dose 1 mg, mean (SD), read-out: Vss): 17.1 L/kg
half-life ([9]; single IV dose 1 mg): 12 h
AUC(0-t) ([9]; single oral dose 5 mg base/kg): 3.62 µg·h/mL
Cmax ([9]; single oral dose 5 mg base/kg): 0.187 µg/mL
Tmax ([9]; single oral dose 5 mg base/kg): 6 h
bioavailability ([9]; single oral dose 5 mg base/kg): 82%
half-life ([9]; single oral dose 5 mg base/kg): 12.9 h
increase in CYP3A4 mRNA over vehicle control [10]: < 2 fold
IC50 [11]: > 50 µM
AUC(0-t) [12]: 1.62 µg·h/mL
mean body weight loss ([13]; 5 mg base/kg): < 1%
TGI ([13]; 5 mg base/kg oral for 30 days): 78%
Ki [14]: 1.6 µM
inhibition at 10 µM ([14]; read-out: inhibition of ligand binding): 76%
inhibition at 0.3 µM [15]: 5.9 ± 1.3%
inhibition at 1 µM [15]: 17.8 ± 0.3%
inhibition at 3 µM [15]: 47 ± 1.9%
inhibition at 10 µM [15]: 77.3 ± 0.2%
Median Tumor Volume Day 36 [16]: 129 mm^3
Median Tumor Volume Diff (Day 36 - Day -3) [16]: 80 mm^3
ST18 and FREM2 change in gene expression in vivo [17]: ≥ 2 fold
dose excreted intact (urine + bile) [18]: 26.3 % of the dose
dose excreted intact in bile [18]: 17.8 % of dose
dose excreted intact in urine [18]: 8.5 % of dose
